Values quoted from earlier work in US20150045610A1, “METHOD OF MODIFYING SPERMATOGENESIS, SPERMIOGENESIS AND/OR FERTILITY IN MAMMALS” (Monell Chemical Senses Center, priority 2012, published 2015).

Target: T1, human T1R3 receptor (Homo sapiens, UniProt Q7RTX0)
T1 construct: expressed in transfected cells
T1 sequence (Q7RTX0 21-852): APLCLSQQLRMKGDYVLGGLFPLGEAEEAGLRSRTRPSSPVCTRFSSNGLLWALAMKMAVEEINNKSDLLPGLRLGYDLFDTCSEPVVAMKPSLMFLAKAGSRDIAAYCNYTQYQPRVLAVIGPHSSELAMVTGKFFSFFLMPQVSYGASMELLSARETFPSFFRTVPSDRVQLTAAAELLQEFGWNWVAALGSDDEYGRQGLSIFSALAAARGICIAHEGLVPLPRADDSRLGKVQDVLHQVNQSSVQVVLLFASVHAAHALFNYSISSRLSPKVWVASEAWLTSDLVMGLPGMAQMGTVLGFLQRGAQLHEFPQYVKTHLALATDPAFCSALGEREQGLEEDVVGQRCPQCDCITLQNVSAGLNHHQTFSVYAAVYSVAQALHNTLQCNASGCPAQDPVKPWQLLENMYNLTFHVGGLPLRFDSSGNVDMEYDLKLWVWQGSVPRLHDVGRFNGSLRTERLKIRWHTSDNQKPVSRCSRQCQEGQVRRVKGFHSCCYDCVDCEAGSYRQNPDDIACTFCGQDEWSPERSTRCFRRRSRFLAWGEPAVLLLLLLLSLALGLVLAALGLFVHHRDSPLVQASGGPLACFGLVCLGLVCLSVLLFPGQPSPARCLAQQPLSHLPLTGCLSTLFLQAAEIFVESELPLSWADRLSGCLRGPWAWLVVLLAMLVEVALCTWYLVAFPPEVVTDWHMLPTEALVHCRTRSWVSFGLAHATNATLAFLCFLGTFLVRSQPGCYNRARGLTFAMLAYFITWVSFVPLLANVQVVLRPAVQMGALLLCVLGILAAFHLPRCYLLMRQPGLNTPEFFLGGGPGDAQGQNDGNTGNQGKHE
T1 sequence (Q8TE23 20-839 partner): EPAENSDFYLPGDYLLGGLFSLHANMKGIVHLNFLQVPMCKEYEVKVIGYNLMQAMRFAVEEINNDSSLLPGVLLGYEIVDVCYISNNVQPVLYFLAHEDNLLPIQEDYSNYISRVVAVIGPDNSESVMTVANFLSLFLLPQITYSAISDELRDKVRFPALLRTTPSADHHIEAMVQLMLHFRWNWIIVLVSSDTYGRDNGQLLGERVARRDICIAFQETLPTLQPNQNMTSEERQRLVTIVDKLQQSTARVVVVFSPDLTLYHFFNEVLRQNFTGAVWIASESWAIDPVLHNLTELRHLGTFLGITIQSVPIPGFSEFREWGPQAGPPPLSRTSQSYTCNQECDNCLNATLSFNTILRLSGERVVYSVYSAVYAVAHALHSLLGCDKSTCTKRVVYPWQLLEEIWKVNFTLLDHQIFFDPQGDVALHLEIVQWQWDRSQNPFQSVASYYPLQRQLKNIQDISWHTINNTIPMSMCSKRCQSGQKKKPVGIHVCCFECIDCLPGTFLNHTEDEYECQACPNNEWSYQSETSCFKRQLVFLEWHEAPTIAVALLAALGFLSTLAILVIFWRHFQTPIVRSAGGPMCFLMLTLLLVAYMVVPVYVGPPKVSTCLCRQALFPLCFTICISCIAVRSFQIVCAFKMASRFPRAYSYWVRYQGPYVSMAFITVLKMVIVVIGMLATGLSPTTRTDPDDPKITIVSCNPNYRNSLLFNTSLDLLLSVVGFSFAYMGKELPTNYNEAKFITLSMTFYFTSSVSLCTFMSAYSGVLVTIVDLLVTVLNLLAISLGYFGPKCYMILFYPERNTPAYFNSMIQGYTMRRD
Conditions: cited from earlier work

CC(C)(Oc1ccc(Cl)cc1)C(=O)O [clofibric acid]
T1R3 inhibition compared with PPAR-α activation: comparable to their activation of PPAR-α
